Measured values as given in patent EP3029024A1, “2-(2-aminophenoxy)-3-chloronaphthalene-1,4-dione compounds having orexin 2 receptor agonist activity” (Ferrer Internacional, S.A., priority 2014, dated 2016).
pEC50: −log10 of the molar value.

Molecular target: T1, OX2 receptor (Homo sapiens, UniProt O43614)
T1 construct: expressed in transfected cells; host or cells: unnamed cell line stably co-expressing apoaequorin and OX2 receptor, cultured in Ham's F12 with G418 and Zeocin
T1 sequence (O43614 1-444): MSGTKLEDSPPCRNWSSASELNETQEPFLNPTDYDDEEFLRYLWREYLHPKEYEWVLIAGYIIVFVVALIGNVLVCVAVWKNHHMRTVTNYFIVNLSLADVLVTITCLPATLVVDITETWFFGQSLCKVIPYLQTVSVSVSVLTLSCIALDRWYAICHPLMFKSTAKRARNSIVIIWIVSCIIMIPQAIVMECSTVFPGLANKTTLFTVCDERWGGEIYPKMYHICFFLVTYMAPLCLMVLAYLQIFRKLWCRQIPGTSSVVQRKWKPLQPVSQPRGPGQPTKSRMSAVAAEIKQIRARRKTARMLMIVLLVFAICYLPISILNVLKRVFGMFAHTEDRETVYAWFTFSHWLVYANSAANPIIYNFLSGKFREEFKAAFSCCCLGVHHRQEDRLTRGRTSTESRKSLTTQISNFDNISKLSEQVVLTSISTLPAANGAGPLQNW
Assay: Functional assay for in vitro evaluation of OX2 receptor agonist activity (aequorin light emission, increase in intracellular calcium)
Format: cell-based
Settings: OX2R Agonism
Description: The method of choice for the in vitro evaluation of OX2 receptor agonists is the measure of the increase in intracellular calcium induced by the activation of the receptor. OX2 receptor is stably expressed in a cell line co-expressing apoaequorin, a photoprotein which needs a hydrophobic prosthetic group, coelenterazine, to be converted to aequorin, the active enzyme. After calcium binding, aequorin oxidizes coelenterazine to coelenteramide with the production of CO2 and emission of light. The measurement of light emission after the addition of agonists reflects its ability to activate the receptor.
Cell line co-expressing apoaequorin and OX2 receptor were cultured as a monolayer at 37°C and 5% CO2 in complete Ham's F12 medium supplemented with FBS 10%, penicillin (100 IU/ml)-streptomycin (100 µg/ml), Geneticin (G418, 400 µg/ml) and Zeocin (250 µg/ml). Before starting the experiment, cells were incubated with a medium without antibiotics for 18 hours. After this incubation, the cells were detached from the culture plates and they were resuspended in DMEM-F12/0.1% BSA at a final concentration of 5x10^6 cells/ml. Cells were then incubated with 5 µM of coelenterazine at room temperature on a vertical rotating wheel for at least 3 hours. Following incubation with coelenterazine cells were diluted 1:10 with DMEM-F12/0.1% BSA and incubated in magnetic agitation for 1 hour.
Dose-response curves were performed for each compound. 50 µl of pre-loaded cells were injected over test compounds in a 96 wells plate. Results were expressed as the concentration of the compound where 50% of its maximal effect is observed (EC50), related to the maximum effect induced by the orexin peptide on the receptor. OX2R Agonism

[1] = Table 2, comparative examples (compounds described in PCT/EP2014/062349), same experimental methodology
[2] = Table 1, cell line co-expressing apoaequorin and OX2 receptor, related to the maximum effect induced by the orexin peptide

Row | SMILES | pEC50 [1] | pEC50 [2]
1 | Nc1ccc(Cl)cc1OC1=C(Cl)C(=O)c2ccccc2C1=O [Example C4] | 6.13 | 
2 | Nc1ccccc1OC1=C(Cl)C(=O)c2ccccc2C1=O [Example C1] | 6.29 | 
3 | COc1ccc(N)c(OC2=C(Cl)C(=O)c3ccccc3C2=O)c1Cl [Example 2, 2-(6-amino-2-chloro-3-methoxyphenoxy)-3-chloronaphthalene-1,4-dione] |  | 7.30
4 | Nc1ccc(F)cc1OC1=C(Cl)C(=O)c2ccccc2C1=O [Example C9] | 6.41 | 
5 | Nc1cc(C(F)(F)F)ccc1OC1=C(Cl)C(=O)c2ccccc2C1=O [Example C8] | 6.15 | 
6 | Cc1ccc(C)c(OC2=C(Cl)C(=O)c3ccccc3C2=O)c1N [Example C12] | 6.82 | 
7 | Cc1ccc(OC2=C(Cl)C(=O)c3ccccc3C2=O)c(N)c1C [Example 7, 2-(2-amino-3,4-dimethylphenoxy)-3-chloronaphthalene-1,4-dione] |  | 7.30
8 | Cc1cc(N)c(OC2=C(Cl)C(=O)c3ccccc3C2=O)cc1C [Example C10] | 6.17 | 
9 | Cc1cc(Br)cc(N)c1OC1=C(Cl)C(=O)c2ccccc2C1=O [Example 6, 2-(2-amino-4-bromo-6-methylphenoxy)-3-chloronaphthalene-1,4-dione] |  | 7.05
10 | COc1ccc(N)c(OC2=C(Cl)C(=O)c3ccccc3C2=O)c1C [Example 1, 2-(6-amino-3-methoxy-2-methylphenoxy)-3-chloronaphthalene-1,4-dione] |  | 7.55
11 | COC(=O)c1ccc(OC2=C(Cl)C(=O)c3ccccc3C2=O)c(N)c1 [Example C6] | 5.39 | 
12 | Nc1cc(Cl)cc(Cl)c1OC1=C(Cl)C(=O)c2ccccc2C1=O [Example C11] | 6.41 | 
13 | Cc1c(Cl)ccc(OC2=C(Cl)C(=O)c3ccccc3C2=O)c1N [Example 3, 2-(2-amino-4-chloro-3-methylphenoxy)-3-chloronaphthalene-1,4-dione] |  | 6.96
14 | Cc1cc(C)c(OC2=C(Cl)C(=O)c3ccccc3C2=O)c(N)c1C [Example 9, 2-(2-amino-3,4,6-trimethylphenoxy)-3-chloronaphthalene-1,4-dione] |  | 6.89
15 | Nc1cc(Cl)ccc1OC1=C(Cl)C(=O)c2ccccc2C1=O [Example C3] | 6.13 | 
16 | Nc1cc(F)ccc1OC1=C(Cl)C(=O)c2ccccc2C1=O [Example C5] | 6.24 | 
17 | Cc1ccc(OC2=C(Cl)C(=O)c3ccccc3C2=O)c(N)c1 [Example C2] | 6.62 | 
18 | Cc1cc(C)c(N)c(OC2=C(Cl)C(=O)c3ccccc3C2=O)c1C [Example 8, 2-(2-amino-3,5,6-trimethylphenoxy)-3-chloronaphthalene-1,4-dione] |  | 7.24
19 | CC(=O)c1ccc(OC2=C(Cl)C(=O)c3ccccc3C2=O)c(N)c1 [Example C7] | 5.36 | 
20 | Cc1cc(Cl)cc(N)c1OC1=C(Cl)C(=O)c2ccccc2C1=O [Example 5, 2-(2-amino-4-chloro-6-methylphenoxy)-3-chloronaphthalene-1,4-dione] |  | 7.10
21 | Cc1cc(C)c(N)c(OC2=C(Cl)C(=O)c3ccccc3C2=O)c1 [Example 4, 2-(2-amino-3,5-dimethylphenoxy)-3-chloronaphthalene-1,4-dione] |  | 7.22
